System: PAR2[F154A], PAR2[G157C]
Assay: Ca^2+ flux assay, inhibition of trypsin in 1321N1 cells transiently transfected with PAR2 [WT], [F154A] or [G157C]
Assay type: cell-based, human
Details: [F154A and G157C], monophasic
Experimental: Cell culture reagents were purchased from ThermoFisher Scientific unless otherwise stated. The parental 1321N1 cell line was obtained from ECACC. 1321N1 cells, stably expressing the human PAR2 receptor, (1321N1-hPAR2) were routinely cultured in Dulbecco’s Modified Eagle Medium (DMEM) supplemented with GlutaMax-1 containing 10% fetal bovine serum (FBS) and G418 (600 µg ml^−1). U2OS cells, stably expressing human PAR2 (U2OS-hPAR2, 93-0235C3, DiscoverX/Eurofins) were routinely cultured in McCoy’s 5A media containing 10% FBS, G418 (500 µg ml^−1) and Hygromycin B (250 µg ml^−1). Rodent PAR2 was assessed in rat KNRK cells (ATCC) cultured in DMEM with 10% FBS supplemented with 2 mM L-Glutamine. Human PAR2 was assessed in HT-29 cells (ECACC) cultured in DMEM with 10% FBS supplemented with penicillin (50 U ml^−1) and streptomycin (50 µg ml^−1). […]
For evaluation of Ca^2+ mobilisation, 1321N1-hPAR2 cells were seeded in 384-well CellBIND plates (Corning) at 4000 cells per well in DMEM containing 10% FBS and incubated for 18–24 hours at 37 °C, 5% CO2 and 95% humidity. […] Inhibition of Ca^2+ release on rat PAR2 was measured in the same way using 10 000 KNRK cells per well seeded in poly-D-lysine coated 384-well plates (Greiner), 30 min preincubation with the compound before activation of PAR2 with EC80 of SLIGRL-NH2 (120 µM) and real-time detection of Ca^2+. […]

In the case of `C[C@@H](C1CCCCC1)n1c(-c2cc3c(cc2Br)OCO3)nc2cc(C(=O)Nc3ccc(C#N)cc3)ccc21` [AZ3451], the “inhibition of trypsin-induced PAR2 activation at mutant receptors pIC50” value is reported as 6.
